Laboratory results as given in patent US20240043395A1, “COMPOUNDS AND COMPOSITIONS AS MODULATORS OF TLR SIGNALING” (Neuropore Therapies, Inc., priority 2020, published 2024).

Assays:
human TLR2 [1] = target: T1, human TLR2 (Homo sapiens (Human), UniProt O60603); test: HEK-Blue hTLR2 antagonism assay (SEAP reporter), agonist Pam2CSK4; type: cell-based; details: HEK-Blue hTLR2 cells; Pam2CSK4 (TLR2/6 agonist) at approx. 3×EC50; 18 h; 8-point dilutions
Description: (§1) Synthetic diacylated lipoprotein (Pam2CSK4, TLR2/6 agonist) and synthetic triacylated lipoprotein (Pam3CSK4, TLR1/2 agonist) were obtained from InvivoGen and were dissolved in endotoxin-free water to a concentration 1 mg/mL, vortexed until complete solubilization, and stored in aliquots at −20° C. Prior to addition to cells, an aliquot of the dissolved ligand was vortexed shortly and then was diluted in medium to 25 ng/mL Pam2CSK4 or 1000 ng/mL Pam3CSK4.
(§2) Test compounds were solubilized fresh to 10-20 mM stocks in DMSO and sonicated for 5-10 minutes in a water bath sonicator. Serial dilutions were prepared in DMSO, and then diluted in medium. The final concentration of DMSO used in the assay was 1%.
(§3) HEK-Blue hTLR2 reporter cells (InvivoGen) are HEK-293 cells stably expressing both the human TLR2 gene and a secreted embryonic alkaline phosphatase (SEAP) reporter construct downstream of NFκB promotor sites. HEK-Blue hTLR2 reporters were cultured according to manufacturer's protocol using Dulbecco's Modified Eagle Medium (DMEM; Gibco) containing 1× GlutaMax (Gibco), 10% heat-inactivated Fetal Bovine Serum (Gibco), Pen-Strep (50 U/mL penicillin, 50 μg/mL streptomycin, Gibco), 100 μg/mL Normocin (InvivoGen), and the selective antibiotic, lx HEK-Blue Selection (InvivoGen). Quanti-Blue reagent (InvivoGen) for detection and quantification of secreted alkaline phosphatase was dissolved in 100 mL of endotoxin-free water, warmed to 37° C. for 30 minutes and then filtered using a 0.2 μm membrane.
(§4) On day 1, 50 μL of each test compound dilution in duplicates or a vehicle control was added to each well of a 96-well plate followed by addition of 150 μL of HEK-Blue hTLR2 cell suspension (1×10^5 cells/well) and incubated at 37° C./5% CO2 for 2 h. Next, 50 μL of an approximate 3×EC50 concentration of each agonist (Pam2CSK4 or Pam3CSK4) was added to the wells containing test compounds or the vehicle control. The plates were then incubated at 37° C./5% CO2 for 18 h. For each assay run, non-treated HEK-Blue hTLR2 cells were treated with serial dilutions of agonists to determine EC50 values for the respective run.
(§5) On day 2, secreted alkaline phosphatase (SEAP) activity was detected in cell culture supernatants. In brief, 20 μL was collected from each well and transferred to a 96-well plate. Next, 200 μL of Quanti-Blue detection reagent was added to each well. Plates were incubated at room temperature for 15 min and SEAP activity was assessed by spectrophotometer OD reading at 655 nm. […] IC50 values were calculated based on 8-point dilutions for each compound.

human TLR2 [2] = target: T1, human TLR2; test: HEK-Blue hTLR2 antagonism assay (SEAP reporter), agonist Pam3CSK4; type: cell-based; details: HEK-Blue hTLR2 cells; Pam3CSK4 (TLR1/2 agonist) at approx. 3×EC50; 18 h; 8-point dilutions
Description: as §1, §2, §3, §4, §5

T1 sequence (O60603 21-784): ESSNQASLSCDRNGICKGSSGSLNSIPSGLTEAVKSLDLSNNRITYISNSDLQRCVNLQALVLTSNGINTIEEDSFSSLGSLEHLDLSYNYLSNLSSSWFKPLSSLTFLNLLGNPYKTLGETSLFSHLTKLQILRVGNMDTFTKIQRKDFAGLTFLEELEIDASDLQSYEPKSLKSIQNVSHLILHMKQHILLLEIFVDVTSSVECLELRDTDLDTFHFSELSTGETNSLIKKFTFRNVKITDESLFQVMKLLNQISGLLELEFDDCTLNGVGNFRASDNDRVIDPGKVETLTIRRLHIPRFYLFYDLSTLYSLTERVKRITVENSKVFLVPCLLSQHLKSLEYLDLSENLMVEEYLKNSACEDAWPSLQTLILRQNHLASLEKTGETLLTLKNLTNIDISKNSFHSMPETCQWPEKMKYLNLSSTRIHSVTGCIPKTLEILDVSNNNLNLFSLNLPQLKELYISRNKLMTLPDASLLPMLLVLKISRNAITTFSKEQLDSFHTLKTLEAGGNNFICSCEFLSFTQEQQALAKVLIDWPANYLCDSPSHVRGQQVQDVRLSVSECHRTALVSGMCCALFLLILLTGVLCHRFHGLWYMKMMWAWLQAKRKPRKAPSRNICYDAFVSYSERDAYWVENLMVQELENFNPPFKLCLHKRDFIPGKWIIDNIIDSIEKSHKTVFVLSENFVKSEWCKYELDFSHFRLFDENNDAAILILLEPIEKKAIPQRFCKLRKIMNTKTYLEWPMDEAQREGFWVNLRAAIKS

## O=Cc1cc(C(=O)N2CCOC(c3ccc(N4CCCC4)cc3)C2)cc(F)c1O (racemic) [Compound 147, 3-fluoro-2-hydroxy-5-(2-(4-(pyrrolidin-1-yl)phenyl)morpholine-4-carbonyl)benzaldehyde]
Human TLR2 [1]
  IC50: 4.7 µM
Human TLR2 [2]
  IC50: 1.6 µM

## O=Cc1cc(C(=O)N2CCOC(c3cccc(N4CCCC4)c3)C2)cc(F)c1O (racemic) [Compound 150, rac-3-fluoro-2-hydroxy-5-(2-(3-(pyrrolidin-1-yl)phenyl)morpholine-4-carbonyl)benzaldehyde]
Human TLR2 [1]
  IC50: 7.5 µM
Human TLR2 [2]
  IC50: 3.1 µM

## C[C@H]1[C@H](c2ccc(N3CCCC3)cc2)OCCN1C(=O)c1cc(F)c(O)c(C=O)c1 (racemic) [Compound 151, rac-3-fluoro-2-hydroxy-5-((2S,3S)-3-methyl-2-(4-(pyrrolidin-1-yl)phenyl)morpholine-4-carbonyl)benzaldehyde]
Human TLR2 [1]
  IC50: 16.9 µM
Human TLR2 [2]
  IC50: 7 µM

## COc1ccc(C2CN(C(=O)c3cc(F)c(O)c(C=O)c3)CCS2)cc1 (racemic) [Compound 152, rac-3-fluoro-2-hydroxy-5-(2-(4-methoxyphenyl)thiomorpholine-4-carbonyl)benzaldehyde]
Human TLR2 [1]
  IC50: 14.2 µM
Human TLR2 [2]
  IC50: 5.7 µM

## O=Cc1cc(C(=O)N2CCCC2c2ccc(N3CCCC3)cc2)cc(F)c1O (racemic) [Compound 155, rac-3-fluoro-2-hydroxy-5-(2-(4-(pyrrolidin-1-yl)phenyl)pyrrolidine-1-carbonyl)benzaldehyde]
Human TLR2 [1]
  IC50: 15.7 µM
Human TLR2 [2]
  IC50: 9.62 µM

## O=Cc1cc(C(=O)N2CCO[C@@H](c3ccc(N4CCCC4)cc3)C2)cc(F)c1O (single isomer, unassigned) [Compound 148]
Human TLR2 [1]
  IC50: 4.99 µM
Human TLR2 [2]
  IC50: 1.88 µM

## O=Cc1cc(C(=O)N2CCO[C@H](c3ccc(N4CCCC4)cc3)C2)cc(F)c1O (single isomer, unassigned) [Compound 149]
Human TLR2 [1]
  IC50: 4.34 µM
Human TLR2 [2]
  IC50: 1.74 µM

## O=Cc1cc(C(=O)N2CC[C@H](c3ccc(N4CCCC4)cc3)C2)cc(F)c1O (single isomer, unassigned) [Compound 156]
Human TLR2 [1]
  IC50: 3.7 µM
Human TLR2 [2]
  IC50: 3.2 µM

## O=Cc1cc(C(=O)N2CC[C@@H](c3ccc(N4CCCC4)cc3)C2)cc(F)c1O (single isomer, unassigned) [Compound 157]
Human TLR2 [1]
  IC50: 3 µM
Human TLR2 [2]
  IC50: 2.2 µM

## O=Cc1cc(C(=O)Nc2nnc(N3CCCCC3)s2)cc(F)c1O [Compound 1, 3-fluoro-5-formyl-4-hydroxy-N-(5-(piperidin-1-yl)-1,3,4-thiadiazol-2-yl)benzamide]
Human TLR2 [1]
  IC50: 45.8 µM
Human TLR2 [2]
  IC50: 21.8 µM

## O=Cc1cc(C(=O)Nc2ncc(N3CCCCC3)s2)cc(F)c1O [Compound 3, 3-fluoro-5-formyl-4-hydroxy-N-(5-(piperidin-1-yl)thiazol-2-yl)benzamide]
Human TLR2 [1]
  IC50: 2.3 µM
Human TLR2 [2]
  IC50: 1.7 µM

## O=Cc1cc(C(=O)Nc2ncc(N3CCN(C4CC4)CC3)s2)cc(F)c1O [Compound 5, N-(5-(4-cyclopropylpiperazin-1-yl)thiazol-2-yl)-3-fluoro-5-formyl-4-hydroxybenzamide]
Human TLR2 [1]
  IC50: 5.3 µM
Human TLR2 [2]
  IC50: 2.7 µM

## O=Cc1cc(C(=O)Nc2nc(-c3ccccc3)cs2)cc(F)c1O [Compound 6, 3-fluoro-5-formyl-4-hydroxy-N-(4-phenylthiazol-2-yl)benzamide]
Human TLR2 [1]
  IC50: 5.1 µM
Human TLR2 [2]
  IC50: 3.3 µM

## O=Cc1cc(C(=O)Nc2cnc(N3CCCC3)s2)cc(F)c1O [Compound 8, 3-fluoro-5-formyl-4-hydroxy-N-(2-(pyrrolidin-1-yl)thiazol-5-yl)benzamide]
Human TLR2 [1]
  IC50: 17.7 µM
Human TLR2 [2]
  IC50: 12.9 µM

## O=Cc1cc(C(=O)Nc2ncc(-c3ccc(N4CCCC4)cc3)s2)cc(F)c1O [Compound 13, 3-fluoro-5-formyl-4-hydroxy-N-(5-(4-(pyrrolidin-1-yl)phenyl)thiazol-2-yl)benzamide]
Human TLR2 [1]
  IC50: 1.5 µM
Human TLR2 [2]
  IC50: 1 µM

## O=Cc1cc(C(=O)c2ccc(N3CCCC3)cc2)cc(F)c1O [Compound 14, 3-fluoro-2-hydroxy-5-(4-(pyrrolidin-1-yl)benzoyl)benzaldehyde]
Human TLR2 [1]
  IC50: 18.2 µM
Human TLR2 [2]
  IC50: 18.7 µM

## O=Cc1cc(C(=O)Nc2coc(-c3ccccc3)n2)cc(F)c1O [Compound 15, 3-fluoro-5-formyl-4-hydroxy-N-(2-phenyloxazol-4-yl)benzamide]
Human TLR2 [1]
  IC50: 4.1 µM
Human TLR2 [2]
  IC50: 0.9 µM

## O=Cc1cc(-c2scnc2-c2ccccc2)cc(F)c1O [Compound 18, 3-fluoro-2-hydroxy-5-(4-phenylthiazol-5-yl)benzaldehyde]
Human TLR2 [1]
  IC50: 22.2 µM
Human TLR2 [2]
  IC50: 20.3 µM

## O=Cc1cc(C(=O)N2CCC(c3ccc(N4CCCC4)cc3)CC2)cc(F)c1O [Compound 34, 3-fluoro-2-hydroxy-5-(4-(4-(pyrrolidin-1-yl)phenyl)piperidine-1-carbonyl)benzaldehyde]
Human TLR2 [1]
  IC50: 0.9 µM
Human TLR2 [2]
  IC50: 0.4 µM

## O=Cc1cc(C(=O)N2CCC(c3cccc(N4CCCC4)c3)CC2)cc(F)c1O [Compound 35, 3-fluoro-2-hydroxy-5-(4-(3-(pyrrolidin-1-yl)phenyl)piperidine-1-carbonyl)benzaldehyde]
Human TLR2 [1]
  IC50: 13.8 µM
Human TLR2 [2]
  IC50: 8 µM

## O=Cc1cc(C(=O)N2CCC(c3ccc(N4CCCC4)nc3)CC2)cc(F)c1O [Compound 37, 3-fluoro-2-hydroxy-5-(4-(6-(pyrrolidin-1-yl)pyridin-3-yl)piperidine-1-carbonyl)benzaldehyde]
Human TLR2 [1]
  IC50: 6.2 µM
Human TLR2 [2]
  IC50: 4.8 µM

## O=Cc1cc(C(=O)N2CCC(c3ccc(N4CCCC4)cc3)C2)cc(F)c1O (stereo not shown) [Compound 82, 3-fluoro-2-hydroxy-5-(3-(4-(pyrrolidin-1-yl)phenyl)pyrrolidine-1-carbonyl)benzaldehyde]
Human TLR2 [1]
  IC50: 8.4 µM
Human TLR2 [2]
  IC50: 3.5 µM

## O=Cc1cc(C(=O)N2CC(c3ccc(N4CCCC4)cc3)C2)cc(F)c1O [Compound 84, 3-fluoro-2-hydroxy-5-(3-(4-(pyrrolidin-1-yl)phenyl)azetidine-1-carbonyl)benzaldehyde]
Human TLR2 [1]
  IC50: 6.2 µM
Human TLR2 [2]
  IC50: 3.8 µM

## O=Cc1cc(C(=O)Nc2ccc(N3CCCC3)nn2)cc(F)c1O [Compound 92, 3-fluoro-5-formyl-4-hydroxy-N-(6-(pyrrolidin-1-yl)pyridazin-3-yl)benzamide]
Human TLR2 [1]
  IC50: 59 µM
Human TLR2 [2]
  IC50: 39 µM

## O=Cc1cc(C(=O)N2CCCN(c3cccc(N4CCCC4)c3)CC2)cc(F)c1O [Compound 98, 3-fluoro-2-hydroxy-5-(4-(3-(pyrrolidin-1-yl)phenyl)-1,4-diazepane-1-carbonyl)benzaldehyde]
Human TLR2 [1]
  IC50: 15.1 µM
Human TLR2 [2]
  IC50: 18.1 µM

## O=Cc1cc(C(=O)Nc2ncc(-c3ccc(C(F)(F)F)cc3)s2)cc(F)c1O [Compound 115, 3-fluoro-5-formyl-4-hydroxy-N-(5-(4-(trifluoromethyl)phenyl)thiazol-2-yl)benzamide]
Human TLR2 [1]
  IC50: 1 µM
Human TLR2 [2]
  IC50: 0.6 µM

## O=Cc1cc(C(=O)Nc2nc(-c3ccccc3)ns2)cc(F)c1O [Compound 121, 3-fluoro-5-formyl-4-hydroxy-N-(3-phenyl-1,2,4-thiadiazol-5-yl)benzamide]
Human TLR2 [1]
  IC50: 15.9 µM
Human TLR2 [2]
  IC50: 7.9 µM

## COc1cc(-c2cnn(-c3ccc(C(F)(F)F)cc3)c2)cc(C=O)c1O [Compound 128, 2-hydroxy-3-methoxy-5-(1-(4-(trifluoromethyl)phenyl)-1H-pyrazol-4-yl)benzaldehyde]
Human TLR2 [1]
  IC50: 0.7 µM
Human TLR2 [2]
  IC50: 0.8 µM

## O=Cc1cc(-c2cnc(-c3ccc(N4CCCC4)nc3)s2)ncc1O [Compound 129, 5-hydroxy-2-(2-(6-(pyrrolidin-1-yl)pyridin-3-yl)thiazol-5-yl)isonicotinaldehyde]
Human TLR2 [1]
  IC50: 0.7 µM
Human TLR2 [2]
  IC50: 0.4 µM

## O=Cc1cc(-c2nc(-c3ccc(N4CCCC4)nc3)ns2)cc(F)c1O [Compound 130, 3-fluoro-2-hydroxy-5-(3-(6-(pyrrolidin-1-yl)pyridin-3-yl)-1,2,4-thiadiazol-5-yl)benzaldehyde]
Human TLR2 [1]
  IC50: 1.3 µM
Human TLR2 [2]
  IC50: 0.8 µM

## O=Cc1cc(C(=O)N2CCN(c3ccc(N4CCCC4)nc3)CC2)cc(F)c1O [Compound 140, 3-fluoro-2-hydroxy-5-(4-(6-(pyrrolidin-1-yl)pyridin-3-yl)piperazine-1-carbonyl)benzaldehyde]
Human TLR2 [1]
  IC50: 14 µM
Human TLR2 [2]
  IC50: 7.2 µM

## O=Cc1cc(C(=O)NCCc2ccc(N3CCCC3)cc2)cc(F)c1O [Compound 143, 3-fluoro-5-formyl-4-hydroxy-N-(4-(pyrrolidin-1-yl)phenethyl)benzamide]
Human TLR2 [1]
  IC50: 17 µM
Human TLR2 [2]
  IC50: 12.3 µM
